Each structure is given as a SMILES string.

The values that follow come from ChEMBL document CHEMBL3525953, “In vitro cytochrome P450-mediated metabolism of exemestane” (Drug Metab Dispos, 2011).

Common to all, as to format: ADME
The target in one data set is T1, Cytochrome P450 2A6 (Homo sapiens, UniProt P11509).
T1 sequence (P11509 whole entry): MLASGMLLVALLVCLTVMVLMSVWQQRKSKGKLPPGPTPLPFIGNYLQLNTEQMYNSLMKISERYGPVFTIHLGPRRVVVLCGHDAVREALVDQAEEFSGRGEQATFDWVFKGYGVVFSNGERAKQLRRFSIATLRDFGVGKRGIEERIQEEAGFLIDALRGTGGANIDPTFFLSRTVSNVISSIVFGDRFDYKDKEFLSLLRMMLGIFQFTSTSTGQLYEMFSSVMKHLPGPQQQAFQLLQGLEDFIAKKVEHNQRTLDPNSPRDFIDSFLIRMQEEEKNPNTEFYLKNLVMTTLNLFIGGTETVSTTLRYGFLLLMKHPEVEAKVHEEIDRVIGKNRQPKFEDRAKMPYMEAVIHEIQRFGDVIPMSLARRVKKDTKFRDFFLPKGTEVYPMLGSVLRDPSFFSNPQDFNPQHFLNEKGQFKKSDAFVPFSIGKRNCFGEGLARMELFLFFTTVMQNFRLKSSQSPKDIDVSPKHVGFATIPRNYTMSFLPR
The data set can be described thus: Drug metabolism assessed as human recombinant CYP2A6-mediated 17-hydroexemestane formation rate per pmol of enzyme at 10 uM after 10 mins.

The target in the next data set is Cytochrome P450 2C19 (Homo sapiens, UniProt P33261). The data set can be described thus: Drug metabolism assessed as human recombinant CYP2C19-mediated 17-hydroexemestane formation rate per pmol of enzyme at 10 uM after 10 mins.
Chain of Cytochrome P450 2C19 (P33261 whole entry): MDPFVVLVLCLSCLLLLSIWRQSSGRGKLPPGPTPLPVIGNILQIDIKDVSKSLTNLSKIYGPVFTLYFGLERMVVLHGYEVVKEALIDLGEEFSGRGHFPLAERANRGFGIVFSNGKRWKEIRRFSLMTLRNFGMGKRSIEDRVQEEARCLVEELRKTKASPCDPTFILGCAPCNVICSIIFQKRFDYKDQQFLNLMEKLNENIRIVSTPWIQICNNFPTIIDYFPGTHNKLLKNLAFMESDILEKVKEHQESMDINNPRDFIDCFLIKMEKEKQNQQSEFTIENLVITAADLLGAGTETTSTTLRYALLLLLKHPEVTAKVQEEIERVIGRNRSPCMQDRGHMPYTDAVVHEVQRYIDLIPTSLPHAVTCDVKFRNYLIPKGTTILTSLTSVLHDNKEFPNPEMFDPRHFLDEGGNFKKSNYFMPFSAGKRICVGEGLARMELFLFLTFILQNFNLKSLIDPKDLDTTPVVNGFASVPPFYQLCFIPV
A further data set addresses Cytochrome P450 3A4 (Homo sapiens, UniProt P08684). The data set can be described thus: Drug metabolism assessed as human recombinant CYP3A4-mediated 17-hydroexemestane formation rate per pmol of enzyme at 10 uM after 10 mins.
The next data set has as its target Cytochrome P450 2C9 (Homo sapiens, UniProt P11712). The data set can be described thus: Drug metabolism assessed as human recombinant CYP2C9-mediated 17-hydroexemestane formation rate per pmol of enzyme at 10 uM after 10 mins.
The next data set concerns the target T2, Cytochrome P450 4A11 (Homo sapiens, UniProt Q02928).
T2 sequence (Q02928 whole entry): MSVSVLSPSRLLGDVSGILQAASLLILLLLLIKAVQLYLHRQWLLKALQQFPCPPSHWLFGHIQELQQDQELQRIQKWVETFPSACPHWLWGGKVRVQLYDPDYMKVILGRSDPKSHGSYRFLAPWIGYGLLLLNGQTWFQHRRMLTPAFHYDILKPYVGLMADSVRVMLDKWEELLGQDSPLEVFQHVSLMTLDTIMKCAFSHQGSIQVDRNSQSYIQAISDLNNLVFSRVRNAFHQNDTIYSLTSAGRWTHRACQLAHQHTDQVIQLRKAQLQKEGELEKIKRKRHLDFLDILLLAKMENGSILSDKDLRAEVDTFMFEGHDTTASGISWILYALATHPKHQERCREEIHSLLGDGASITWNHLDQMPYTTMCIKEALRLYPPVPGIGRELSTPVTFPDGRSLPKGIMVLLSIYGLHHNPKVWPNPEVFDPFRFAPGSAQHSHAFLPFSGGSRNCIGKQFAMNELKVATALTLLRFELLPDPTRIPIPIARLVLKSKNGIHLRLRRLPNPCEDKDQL
The data set can be described thus: Drug metabolism assessed as human recombinant CYP4A11-mediated 17-hydroexemestane formation rate per pmol of enzyme at 10 uM after 10 mins.

Chain of Cytochrome P450 3A4 (P08684 whole entry): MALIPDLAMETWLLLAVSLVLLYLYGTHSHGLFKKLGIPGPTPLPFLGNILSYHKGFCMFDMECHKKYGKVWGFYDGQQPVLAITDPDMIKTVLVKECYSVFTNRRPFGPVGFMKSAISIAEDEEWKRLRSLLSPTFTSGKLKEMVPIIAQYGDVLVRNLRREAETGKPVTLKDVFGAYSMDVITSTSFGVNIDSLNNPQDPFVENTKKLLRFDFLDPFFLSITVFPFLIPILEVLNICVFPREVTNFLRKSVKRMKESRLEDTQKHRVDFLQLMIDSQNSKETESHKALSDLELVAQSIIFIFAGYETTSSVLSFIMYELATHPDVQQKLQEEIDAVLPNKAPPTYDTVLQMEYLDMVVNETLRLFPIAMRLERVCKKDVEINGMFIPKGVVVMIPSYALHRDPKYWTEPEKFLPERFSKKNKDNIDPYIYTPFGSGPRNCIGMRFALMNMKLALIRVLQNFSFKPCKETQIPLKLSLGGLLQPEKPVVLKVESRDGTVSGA
Chain of Cytochrome P450 2C9 (P11712 whole entry): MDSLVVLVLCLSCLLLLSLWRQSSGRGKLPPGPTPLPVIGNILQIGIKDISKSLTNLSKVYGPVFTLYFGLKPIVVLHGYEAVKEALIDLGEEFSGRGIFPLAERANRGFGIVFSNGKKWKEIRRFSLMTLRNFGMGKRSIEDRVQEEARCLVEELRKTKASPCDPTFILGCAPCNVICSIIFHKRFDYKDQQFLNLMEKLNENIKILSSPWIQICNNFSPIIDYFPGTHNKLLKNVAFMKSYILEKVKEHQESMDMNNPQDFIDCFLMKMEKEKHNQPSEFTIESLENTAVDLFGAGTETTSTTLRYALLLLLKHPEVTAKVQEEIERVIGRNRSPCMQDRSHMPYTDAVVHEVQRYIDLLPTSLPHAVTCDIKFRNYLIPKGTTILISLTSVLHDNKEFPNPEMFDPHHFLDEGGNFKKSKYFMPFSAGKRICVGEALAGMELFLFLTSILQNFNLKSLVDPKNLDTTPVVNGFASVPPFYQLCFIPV

Regarding `C=C1C[C@@H]2[C@H](CC[C@]3(C)C(O)CC[C@@H]23)[C@@]2(C)C=CC(=O)C=C12` (stereo not given in full), the Drug metabolism on Cytochrome P450 2A6 is 0.51 pmol/min; at Cytochrome P450 2C19 it was “metabolite_not_detected”; at Cytochrome P450 3A4, 0.17 pmol/min; at Cytochrome P450 2C9, “metabolite_not_detected”; at Cytochrome P450 4A11, 0.48 pmol/min.
